Experiment: recombinant UMI read abundance after kanamycin selection (control-corrected) (log10(CPM+1)); higher = more efficient recombination; extreme values may be limits of the assay; sequences stand for … in AGTGCAGAGAAAATCGGCCAGTTTTCTCTGCCTGCAGTCCGCATGCCGTGGGACCCCTTGGGTTCTAACCTGTTGCCTAGATTTATGCAGCGGACTGCCTTTCTCCCAAAGTGATAAACCGG…AGGTTGGTTTCACT; site = the 11-nt donor
Protocol: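 Pooled E. coli donor-specificity screen for the IS621 bridge recombinase. Each library member carries a reprogrammed 11-nt donor and a full-length LE bridge RNA expressed in cis from the natural promoter, with a paired donor-binding loop (8-nt LDG + 4-nt RDG) and a target-binding loop fixed to T5. It is co-electroporated with a T5 target plasmid; recombinase is induced with 0.07 mM IPTG and recombinants are selected on kanamycin. UMIs are counted as CPM, averaged over two biological replicates and corrected by the unselected control. Molecule = full bridge RNA written as DNA, built from the T5 scaffold: LDG = donor specificity nt 1-8, RDG = reverse complement of nt 8-11.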
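Note: IS621 bridge recombinase in Escherichia coli cells against a fixed T5 target plasmid.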

Sequence	recombinant UMI read abundance (log10)
GGATAGACATGGACCGGTTTTCCCGGTAATCCGTATTTGCC (site AGATAGACTGG)	2.1
GGTTCAACATGGACCGGTTTTCCCGGTAATCCGTATTTGTA (site GGTTCAACTTA)	0.00797
TGCTTCGCATGGACCGGTTTTCCCGGTAATCCGTATTTGTC (site TGCTTCGCTGA)	0.542
CGCCTAACATGGACCGGTTTTCCCGGTAATCCGTATTTGGG (site CGCCTAACTCC)	0.0879
GGATTGGCATGGACCGGTTTTCCCGGTAATCCGTATTTGGT (site GGACTGGCTAC)	0.611
CAGACGACATGGACCGGTTTTCCCGGTAATCCGTATTTGGG (site CAGCCGACTCC)	0.0345
GGGGCACCATGGACCGGTTTTCCCGGTAATCCGTATTTGCA (site GGGGAACCTTG)	0
TAGTATACATGGACCGGTTTTCCCGGTAATCCGTATTTGCA (site TAGCATACTTG)	1.11
GCCACGCCATGGACCGGTTTTCCCGGTAATCCGTATTTGTA (site GCGACGCCTTA)	0.00719
AGGAAGACATGGACCGGTTTTCCCGGTAATCCGTATTTGCC (site AGGAAGACTCG)	0.723
GAATTGCCATGGACCGGTTTTCCCGGTAATCCGTATTTGCA (site GAATGGCCTTG)	0.696
TAAAGTCCATGGACCGGTTTTCCCGGTAATCCGTATTTGTC (site TAAAGTCCTGA)	0.327
TATTCGGCATGGACCGGTTTTCCCGGTAATCCGTATTTGTG (site TATTTGGCTCA)	0.0132
CGGGGACCATGGACCGGTTTTCCCGGTAATCCGTATTTGAT (site CGGGAACCTAT)	0
AGAAAGGCATGGACCGGTTTTCCCGGTAATCCGTATTTGCT (site AAAAAGGCTAG)	0
TATTTGGCATGGACCGGTTTTCCCGGTAATCCGTATTTGTG (site TATTCGGCTCA)	0.0142
GTGCATGCATGGACCGGTTTTCCCGGTAATCCGTATTTGGT (site GTGCATGCTGC)	0.451
GTGGTGGCATGGACCGGTTTTCCCGGTAATCCGTATTTGTG (site GTGGTGGCTCA)	0.992
CGGAGCACATGGACCGGTTTTCCCGGTAATCCGTATTTGCA (site CGGAGCACTTG)	2.66
CCTTTTACATGGACCGGTTTTCCCGGTAATCCGTATTTGCT (site CCATTTACTAG)	0
TAAGCTGCATGGACCGGTTTTCCCGGTAATCCGTATTTGTG (site TTAGCTGCTCA)	0.00901
GCGTTGACATGGACCGGTTTTCCCGGTAATCCGTATTTGAG (site GCGTTGACTCT)	1.98
AGCCAAGCATGGACCGGTTTTCCCGGTAATCCGTATTTGTT (site AGCCGAGCTAA)	0.00778
TCAGAAACATGGACCGGTTTTCCCGGTAATCCGTATTTGCG (site TCAGAGACTCG)	2.47

Sequence	recombinant UMI read abundance (log10)
GATCTAACATGGACCGGTTTTCCCGGTAATCCGTATTTGTC (site GATCTAACTGA)	0
TAGCCTGCATGGACCGGTTTTCCCGGTAATCCGTATTTGGT (site TAGCCTGCTAC)	0.0393
GCCTCGCCATGGACCGGTTTTCCCGGTAATCCGTATTTGTA (site GCCTCGCCTTA)	0.0151
CAAGTCGCATGGACCGGTTTTCCCGGTAATCCGTATTTGGG (site CAAGTCCCTCC)	0.554
TTAGCTTCATGGACCGGTTTTCCCGGTAATCCGTATTTGTG (site TTAGCTTCTCA)	0.478
AGAAAGGCATGGACCGGTTTTCCCGGTAATCCGTATTTGCT (site CGAAAGGCTAG)	0.48
GCGAAAACATGGACCGGTTTTCCCGGTAATCCGTATTTGGT (site GCGAAAACTAC)	1.58
GCCACTCCATGGACCGGTTTTCCCGGTAATCCGTATTTGTA (site GCCACACCTTA)	0.0288
ATGTAGGCATGGACCGGTTTTCCCGGTAATCCGTATTTGGG (site ATGTAGGCTTC)	0.0205
ATAGGGCCATGGACCGGTTTTCCCGGTAATCCGTATTTGAC (site ATAAGGCCTGT)	1.44
GGATAGACATGGACCGGTTTTCCCGGTAATCCGTATTTGCC (site GGATAGTCTGG)	1.62
GTACGAGCATGGACCGGTTTTCCCGGTAATCCGTATTTGCA (site GTCCGAGCTTG)	0.87
TAGAATACATGGACCGGTTTTCCCGGTAATCCGTATTTGTA (site TAGAATACTTC)	0.00357
CAATTCTCATGGACCGGTTTTCCCGGTAATCCGTATTTGCT (site CAATTCACTAG)	0.75
CGGGTTGCATGGACCGGTTTTCCCGGTAATCCGTATTTGGT (site CGGGTTGCTAC)	1.77
CTGCCACCATGGACCGGTTTTCCCGGTAATCCGTATTTGCT (site CTGCCACCTAG)	0.00511
AGTGTGTCATGGACCGGTTTTCCCGGTAATCCGTATTTGAC (site AATGTGTCTGT)	0
CGATCTGCATGGACCGGTTTTCCCGGTAATCCGTATTTGCT (site CGATCTGCTAG)	1.72
AGACGCACATGGACCGGTTTTCCCGGTAATCCGTATTTGAA (site AGACGCACTTT)	1.43
TGACCGGCATGGACCGGTTTTCCCGGTAATCCGTATTTGGG (site TGACCGGCTCC)	0.00617
TCCAACTCATGGACCGGTTTTCCCGGTAATCCGTATTTGCC (site TCCAAATCTGG)	0
GGTTAGACATGGACCGGTTTTCCCGGTAATCCGTATTTGCC (site GGATAGACTGG)	1.17
CGTGGAACATGGACCGGTTTTCCCGGTAATCCGTATTTGCT (site CGTGGAACTAG)	2.18
TGCTCAGCATGGACCGGTTTTCCCGGTAATCCGTATTTGGG (site GGCTCAGCTCC)	0.0391

Sequence	recombinant UMI read abundance (log10)
AATGTGGCATGGACCGGTTTTCCCGGTAATCCGTATTTGAC (site AATGTGTCTGT)	0.451
TAGCCTTCATGGACCGGTTTTCCCGGTAATCCGTATTTGGT (site TAGCCTCCTAC)	0.00585
CCCAAATCATGGACCGGTTTTCCCGGTAATCCGTATTTGTC (site CCCATATCTGA)	0
GGATAGACATGGACCGGTTTTCCCGGTAATCCGTATTTGTC (site GGATAGACTGT)	1.81
CGGTCTGCATGGACCGGTTTTCCCGGTAATCCGTATTTGAG (site CGGTCTGCTCT)	0.251
CGCTCGACATGGACCGGTTTTCCCGGTAATCCGTATTTGTT (site CGATCGACTAA)	0
CGGACTCCATGGACCGGTTTTCCCGGTAATCCGTATTTGGT (site CGGAATCCTAA)	0.00968
TCCTAGCCATGGACCGGTTTTCCCGGTAATCCGTATTTGCC (site CCCTAGCCTGG)	0
TATTCCCCATGGACCGGTTTTCCCGGTAATCCGTATTTGTA (site TGTTCCCCTTA)	0.254
GTCACGTCATGGACCGGTTTTCCCGGTAATCCGTATTTGCG (site GTCACGTCTCG)	2.07
GGATAGACATGGACCGGTTTTCCCGGTAATCCGTATTTGTC (site GGATAGACTGC)	0.855
ATCCCTACATGGACCGGTTTTCCCGGTAATCCGTATTTGCA (site ATCCCTACTTG)	1.81
GCGACAACATGGACCGGTTTTCCCGGTAATCCGTATTTGCT (site GCGACAACTAG)	1.97
AGTAAGACATGGACCGGTTTTCCCGGTAATCCGTATTTGAA (site AGGAAGACTTG)	0
AATGGAACATGGACCGGTTTTCCCGGTAATCCGTATTTGCT (site AATGAAACTAG)	0.482
CAATGGTCATGGACCGGTTTTCCCGGTAATCCGTATTTGAA (site CAATGGTCTTT)	2.39
ATGTAGGCATGGACCGGTTTTCCCGGTAATCCGTATTTGGC (site AGGTAGGCTGC)	0.332
GTTGGTCCATGGACCGGTTTTCCCGGTAATCCGTATTTGGT (site GTTGTTCCTAC)	0.00359
AGGTAGGCATGGACCGGTTTTCCCGGTAATCCGTATTTGGC (site ATGTAGGCTGC)	0.775
ATTCGCTCATGGACCGGTTTTCCCGGTAATCCGTATTTGAA (site ATTCGCTCTTT)	0.571
GCGAAAACATGGACCGGTTTTCCCGGTAATCCGTATTTGCG (site GCGAAAACTCG)	2.63
CAAGCCTCATGGACCGGTTTTCCCGGTAATCCGTATTTGTC (site CAAGCCTCTGA)	3.3
GTGCATGCATGGACCGGTTTTCCCGGTAATCCGTATTTGGT (site GTGTATGCTAC)	0.469
TGCTAGACATGGACCGGTTTTCCCGGTAATCCGTATTTGGT (site TGCTAGTCTAC)	0.357

Source: the supplement of paper PMC11208160
